Where two headings read alike, the source gives them in different places.
Legend:
Format in all cases: cell-based
MT-4 cells = experiment: MT4 cytotoxicity analysis (CellTiter-Glo); conditions: human, 5 days
Procedure, shortened: (§1)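 MT-4 cells were exposed in quadruplicate to 3-fold serial compound dilutions (DMSO stocks 2.5 uM to 10 mM) for five days at 37 °C. Viability was read by CellTiter-Glo luminescence.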

[1] = tested on: RSV-Fluc (Recombinant Respiratory Syncytial virus strain A2 containing the firefly luciferase reporter); experiment: microbe, parasite or virus in culture; conditions: human respiratory syncytial virus, NHBE, 72 h, read-out: RSV-Fluc EC50 (nM, NHBE)
SARS-CoV-2 = experiment: microbe, parasite or virus in culture; conditions: Severe acute respiratory syndrome coronavirus 2, 48 h
[2] = MT4 cytotoxicity analysis (CellTiter-Glo); conditions: human
Procedure, shortened: as §1

Structure (SMILES) | CC50 (MT-4 cells) | EC50 [1] | EC50 (SARS-CoV-2) | CC50 at 5 days ([2]; MT4 CC50 (nM)) | CC50 at 5 days ([2]; MT-4 cells, five days, CellTiter-Glo, read-out: MT4 CC50)
CCCCCCCCCCCCCCCCCCOC[C@H](COP(=O)(O)OC[C@H]1O[C@@](C#N)(c2ccc3c(N)ncnn23)[C@H](O)[C@@H]1O)Oc1ccccc1C(=O)O [Example 38, 2-(((2R)-1-(((((2R,3S,4R,5R)-5-(4-aminopyrrolo[2,1-f][1,2,4]triazin-7-yl)-5-cyano-3,4-dihydroxytetrahydrofuran-2-yl)methoxy)(hydroxy)phosphoryl)oxy)-3-(octadecyloxy)propan-2-yl)oxy)benzoic acid] | 50000 nM | 160 nM |  |  | 
CCCCCCCCCCCCCCCCCCOC[C@H](COP(=O)(O)OC[C@H]1O[C@@](C#N)(c2ccc3c(N)ncnn23)[C@H](O)[C@@H]1O)NC(=O)c1ccccc1C#N [Example 58, ((2R,3S,4R,5R)-5-(4-aminopyrrolo[2,1-f][1,2,4]triazin-7-yl)-5-cyano-3,4-dihydroxytetrahydrofuran-2-yl)methyl ((R)-2-(2-cyanobenzamido)-3-(octadecyloxy)propyl) hydrogen phosphate] |  | 300 nM | 5100 nM | 43000 nM | 
CCCCCCCCCCCCCCOCCOP(=O)(O)OC[C@H]1O[C@@](C#N)(c2ccc3c(N)ncnn23)[C@H](O)[C@@H]1O [Example 59, [(2R,3S,4R,5R)-5-(4-Aminopyrrolo[2,1-f][1,2,4]triazin-7-yl)-5-cyano-3,4-dihydroxy-tetrahydrofuran-2-yl]methyl 2-tetradecoxyethyl hydrogen phosphate] |  | 170 nM | 10000 nM | 16000 nM | 
CCCCCCCCCCCCCCCCCOCCOP(=O)(O)OC[C@H]1O[C@@](C#N)(c2ccc3c(N)ncnn23)[C@H](O)[C@@H]1O [Example 60, [(2R,3S,4R,5R)-5-(4-aminopyrrolo[2,1-f][1,2,4]triazin-7-yl)-5-cyano-3,4-dihydroxy-tetrahydrofuran-2-yl]methyl 2-heptadecoxyethyl hydrogen phosphate] |  | 240 nM | 2000 nM | 4800 nM | 
CCCCCCCCCCCCCCSCCCOP(=O)(O)OC[C@H]1O[C@@](C#N)(c2ccc3c(N)ncnn23)[C@H](O)[C@@H]1O [Example 61, [(2R,3S,4R,5R)-5-(4-aminopyrrolo[2,1-f][1,2,4]triazin-7-yl)-5-cyano-3,4-dihydroxy-tetrahydrofuran-2-yl]methyl 3-tetradecylsulfanylpropyl hydrogen phosphate] |  | 200 nM | 6100 nM | 12000 nM | 
CCCCCCCCCCCCCCCCCSCCCOP(=O)(O)OC[C@H]1O[C@@](C#N)(c2ccc3c(N)ncnn23)[C@H](O)[C@@H]1O [Example 62, [(2R,3S,4R,5R)-5-(4-Aminopyrrolo[2,1-f][1,2,4]triazin-7-yl)-5-cyano-3,4-dihydroxy-tetrahydrofuran-2-yl]methyl 3-heptadecylsulfanylpropyl hydrogen phosphate] |  | 230 nM | 9800 nM | 24000 nM | 
CCCCCCCCCCCCCCCCCCOC[C@H](COP(=O)(O)OC[C@H]1O[C@@](C#N)(c2ccc3c(N)ncnn23)[C@H](O)[C@@H]1O)OCc1ccc(F)c(Cl)c1F [Example 64, [(2R,3S,4R,5R)-5-(4-Aminopyrrolo[2,1-f][1,2,4]triazin-7-yl)-5-cyano-3,4-dihydroxy-tetrahydrofuran-2-yl]methyl [(2R)-2-[(3-chloro-2,4-difluoro-phenyl)methoxy]-3-octadecoxy-propyl] hydrogen phosphate] |  | 86 nM | 400 nM | 3100 nM | 
CCCCCCCCCCCCCCCCSCCCOP(=O)(O)OC[C@H]1O[C@@](C#N)(c2ccc3c(N)ncnn23)[C@H](O)[C@@H]1O [Example 65, [(2R,3S,4R,5R)-5-(4-Aminopyrrolo[2,1-f][1,2,4]triazin-7-yl)-5-cyano-3,4-dihydroxy-tetrahydrofuran-2-yl]methyl 3-hexadecylsulfanylpropyl hydrogen phosphate] | 50000 nM |  |  |  | 
CCCCCCCCCCCCCCCCCCOC[C@H](CO[P@](O)(=S)OC[C@H]1O[C@@](C#N)(c2ccc3c(N)ncnn23)[C@H](O)[C@@H]1O)OCc1cc(F)cc(C#N)c1 [Example 68] |  | 120 nM | 360 nM |  | 670 nM
CCCCCCCCCCCCCCCCCCC[C@H](COCc1ccc(C#N)cc1F)OP(=O)(O)OC[C@H]1O[C@@](C#N)(c2ccc3c(N)ncnn23)[C@H](O)[C@@H]1O [Example 69, ((2R,3S,4R,5R)-5-(4-aminopyrrolo[2,1-f][1,2,4]triazin-7-yl)-5-cyano-3,4-dihydroxytetrahydrofuran-2-yl)methyl ((R)-1-((4-cyano-2-fluorobenzyl)oxy)henicosan-2-yl) hydrogen phosphate] |  | 400 nM | 10000 nM | 48000 nM | 
CCCCCCCCCCCCCCCCCCC[C@H](COP(=O)(O)OC[C@H]1O[C@@](C#N)(c2ccc3c(N)ncnn23)[C@H](O)[C@@H]1O)OCc1ccc(C#N)c(F)c1 [Example 71, ((2R,3S,4R,5R)-5-(4-aminopyrrolo[2,1-f][1,2,4]triazin-7-yl)-5-cyano-3,4-dihydroxytetrahydrofuran-2-yl)methyl ((R)-2-((4-cyano-3-fluorobenzyl)oxy)henicosyl) hydrogen phosphate] |  | 68 nM | 79 nM | 900 nM | 
CCCCCCCCCCCCCCCCCCC[C@H](COP(=O)(O)OC[C@H]1O[C@@](C#N)(c2ccc3c(N)ncnn23)[C@H](O)[C@@H]1O)OCc1ccccc1 [Example 72, ((2R,3S,4R,5R)-5-(4-aminopyrrolo[2,1-f][1,2,4]triazin-7-yl)-5-cyano-3,4-dihydroxytetrahydrofuran-2-yl)methyl ((R)-2-(benzyloxy)henicosyl) hydrogen phosphate] |  | 190 nM | 1100 nM | 3800 nM | 
CCCCCCCCCCCCCCC#CC[C@H](COP(=O)(O)OC[C@H]1O[C@@](C#N)(c2ccc3c(N)ncnn23)[C@H](O)[C@@H]1O)OCc1ccccc1 [Example 73, ((2R,3S,4R,5R)-5-(4-aminopyrrolo[2,1-f][1,2,4]triazin-7-yl)-5-cyano-3,4-dihydroxytetrahydrofuran-2-yl)methyl ((R)-2-(benzyloxy)nonadec-4-yn-1-yl) hydrogen phosphate] |  | 58 nM | 430 nM | 3500 nM | 
CCCCCCCCCCCCCCC#CC[C@H](COP(=O)(O)OC[C@H]1O[C@@](C#N)(c2ccc3c(N)ncnn23)[C@H](O)[C@@H]1O)OCc1cc(F)cc(C#N)c1 [Example 74, ((2R,3S,4R,5R)-5-(4-aminopyrrolo[2,1-f][1,2,4]triazin-7-yl)-5-cyano-3,4-dihydroxytetrahydrofuran-2-yl)methyl ((R)-2-((3-cyano-5-fluorobenzyl)oxy)nonadec-4-yn-1-yl) hydrogen phosphate] |  | 24 nM | 190 nM | 300 nM | 
CCCCCCCCCCCCCCC#CC[C@H](COP(=O)(O)OC[C@H]1O[C@@](C#N)(c2ccc3c(N)ncnn23)[C@H](O)[C@@H]1O)OCc1ccc(C#N)c(F)c1 [Example 75, ((2R,3S,4R,5R)-5-(4-aminopyrrolo[2,1-f][1,2,4]triazin-7-yl)-5-cyano-3,4-dihydroxytetrahydrofuran-2-yl)methyl ((R)-2-((4-cyano-3-fluorobenzyl)oxy)nonadec-4-yn-1-yl) hydrogen phosphate] |  | 17 nM | 72 nM | 230 nM | 

— patent US12208110B2 (priority 2020, dated 2025)
